Article PMC5698592 (British Journal of Clinical Pharmacology, 2017)

Legend:
[1] = Phase I safety assessment; type: in vivo, human; conditions: fasted, healthy subjects; for Number of subjects who reported AEs / Number of subjects with AEs considered to be treatment‐related / Subjects who reported AEs / Subjects with AEs considered to be treatment‐related: after single oral dose of each treatment; for Abdominal pain, number of events / Abdominal pain, number of subjects / Dizziness, number of events / Dizziness, number of subjects / Dysphonia, number of events / Dysphonia, number of subjects / Euphoric mood, number of events / Euphoric mood, number of subjects / Fatigue, number of events / Fatigue, number of subjects / Feeling abnormal, number of events / Feeling abnormal, number of subjects / Headache, number of events / Headache, number of subjects / Nasal congestion, number of events / Nasal congestion, number of subjects / Nausea, number of events / Nausea, number of subjects / Rash, number of events / Rash, number of subjects / Rhinitis, number of events / Rhinitis, number of subjects / Rhinorrhoea, number of events / Rhinorrhoea, number of subjects / Somnolence, number of events / Somnolence, number of subjects / Vessel puncture site pain, number of events / Vessel puncture site pain, number of subjects / Vessel puncture site reaction, number of events / Vessel puncture site reaction, number of subjects: single oral dose
[2] = cited from earlier work
[3] = Phase I single-dose pharmacokinetics, plasma tramadol, M1 and celecoxib; type: in vivo, human; conditions: for AUC(0-inf): human, plasma, po, 100 mg
[4] = tramadol administered alone in its conventional form; cited from earlier work
[5] = after use of IR tramadol; cited from earlier work
[6] = test system: mu‐opioid receptor; conditions: compared with tramadol itself; cited from earlier work
[7] = celecoxib alone vs. tramadol + celecoxib

Row | Compound | Number of subjects who reported AEs [1] | Number of subjects with AEs considered to be treatment‐related [1] | Subjects who reported AEs [1] [%] | Subjects with AEs considered to be treatment‐related [1] [%] | Abdominal pain, number of events [1] | Abdominal pain, number of subjects [1] | Dizziness, number of events [1] | Dizziness, number of subjects [1] | Dysphonia, number of events [1] | Dysphonia, number of subjects [1] | Euphoric mood, number of events [1] | Euphoric mood, number of subjects [1] | Fatigue, number of events [1] | Fatigue, number of subjects [1] | Feeling abnormal, number of events [1] | Feeling abnormal, number of subjects [1] | Headache, number of events [1] | Headache, number of subjects [1] | Nasal congestion, number of events [1] | Nasal congestion, number of subjects [1] | further results
1 | Cc1ccc(-c2cc(C(F)(F)F)nn2-c2ccc(S(N)(=O)=O)cc2)cc1 [celecoxib] | 12 | 8 | 34.3 | 22.9 | 0 | 0 | 1 / 1 | 1 / 1 | 1 / 1 | 1 / 1 | 0 | 0 | 0 | 0 | 0 | 0 | 1 / 1 | 1 / 1 | 1 / 1 | 1 / 1 | Nausea, number of events [1]: 0; Nausea, number of subjects [1]: 0; Rash, number of events [1]: 1 / 1; Rash, number of subjects [1]: 1 / 1; Rhinitis, number of events [1]: 1 / 1; Rhinitis, number of subjects [1]: 1 / 1; Rhinorrhoea, number of events [1]: 1 / 1; Rhinorrhoea, number of subjects [1]: 1 / 1; Somnolence, number of events [1]: 5 / 5; Somnolence, number of subjects [1]: 5 / 5; Vessel puncture site pain, number of events [1]: 2 / 2; Vessel puncture site pain, number of subjects [1]: 2 / 2; Vessel puncture site reaction, number of events [1]: 1 / 1; Vessel puncture site reaction, number of subjects [1]: 1 / 1; time to peak plasma concentrations ([2]; after administration of commercially available formulation): 2 to 3 h; elimination half‐life ([2]; commercially available formulation): 8 to 12 h; Ratio of geometric LS means (90% CI), celecoxib AUC τ, Treatment 3 vs. Treatment 4 [3, 7]: 110.39 (105.68–115.32) %; Ratio of geometric LS means (90% CI), celecoxib AUC ∞, Treatment 3 vs. Treatment 4 [3, 7]: 103.64 (99.37–108.09) %; Ratio of geometric LS means (90% CI), celecoxib C max, Treatment 3 vs. Treatment 4 [3, 7]: 163.92 (146.56–183.35) %; AUC(0-inf) [3]: 3200 ng·h/mL
2 | COc1cccc(C2(O)CCCCC2CN(C)C)c1 (stereo not drawn) [tramadol] | 14 | 14 | 40.0 | 40.0 | 2 / 2 | 2 / 2 | 4 / 4 | 4 / 4 | 1 / 1 | 1 / 1 | 2 / 2 | 2 / 2 | 2 / 2 | 2 / 2 | 1 / 1 | 1 / 1 | 1 / 1 | 1 / 1 | 1 / 1 | 1 / 1 | Nausea, number of events [1]: 6; Nausea, number of subjects [1]: 4; Rash, number of events [1]: 0; Rash, number of subjects [1]: 0; Rhinitis, number of events [1]: 0; Rhinitis, number of subjects [1]: 0; Rhinorrhoea, number of events [1]: 0; Rhinorrhoea, number of subjects [1]: 0; Somnolence, number of events [1]: 10 / 10; Somnolence, number of subjects [1]: 10 / 10; Vessel puncture site pain, number of events [1]: 0; Vessel puncture site pain, number of subjects [1]: 0; Vessel puncture site reaction, number of events [1]: 1 / 1; Vessel puncture site reaction, number of subjects [1]: 1 / 1; elimination half‐life (T ½el) [4]: 5 to 6 h; AUC(0-inf) [3]: 3060 ng·h/mL; subjects affected by the most common AEs (nausea and dizziness) [5]: > 10%
3 | (+)‐O‐desmethyl‐tramadol [M1] |  |  |  |  |  |  |  |  |  |  |  |  |  |  |  |  |  |  |  |  | affinity for the mu‐opioid receptor [6]: much greater affinity
